Values of other authors, collected in patent publication US7842686B2, “CGRP receptor antagonists” (Vertex Pharmaceuticals Incorporated, priority 2006, dated 2010).
No end group written: not given here.

Key:
[1] = tested on: middle meningeal artery; conditions: rats, electrical stimulation of the dura mater, prior administration
[2] = tested on: facial blood flow; conditions: rat, trigeminal ganglion stimulation
[3] = tested on: acute attacks of migraine; conditions: clinical trials (Olesen et al. 2004)
[4] = tested on: facial blood flow; conditions: marmoset, electrical stimulation of the trigeminal ganglion

Compound | effect on increase of middle meningeal artery diameter [1] | effect on increase of facial blood flow [2] | efficacy in acute attacks of migraine [3] | effect on increase in facial blood flow [4]
CGRP(8-37): a peptide CGRP antagonist (VTHRLAGLLSRSGGVVKNNFVPTNVGSKAF-NH2; ends and bridges not checked; UniProt P06881 90-119, looked up, fragment) | blocked | inhibited | – | –
NCCCC[C@H](NC(=O)[C@@H](Cc1cc(Br)c(O)c(Br)c1)NC(=O)N1CCC(N2Cc3ccccc3NC2=O)CC1)C(=O)N1CCN(c2ccncc2)CC1 [BIBN4096BS] | – | – | effective in treating acute attacks of migraine | could be blocked
